Laboratory results published in patent US11850244B2, “Drug delivery systems and methods for treatment of bladder dysfunction or disorder using trospium” (TARIS BIOMEDICAL LLC, priority 2012, dated 2023).
Entries after “also recorded” stand apart in the source; their conditions may differ. Counter-ions that a name gives are not always drawn.

What was measured:
[1] = test system: urothelium; experiment: Intravesical pharmacology screen in rat bladder perfusion model with acetic acid; settings: for acetic acid induced increased intravesical pressure / inter-contraction intervals compared to the control: 0.05-100 μg/mL intravesical, 0.5% acetic acid; for acetic acid induced increased intravesical pressure: FIGS. 7A-7C; for inter-contraction intervals compared to the control: FIGS. 7D-7F
Protocol: Intercontraction intervals and intravesical pressure were measured during a control periods and treatment periods.
The rats' bladder catheters were connected to a pressure transducer and syringe-pump to allow perfusion. The bladders were perfused (50 μL/minute) with saline for one hour to obtain stable micturition cycles. The perfusion then was switched to a weak acidic solution sufficient to stimulate the noxious receptors in the urothelium without inducing structural or metabolic damage to the tissue. […] A 45 minute baseline was recorded.
The vehicle or antimuscarinic drugs were administered intravesically at escalating concentrations (see Table 2 for drugs and concentrations used) with acetic acid instillation (50 μL/minute). Each dose was administered for a 30-minute period. The intravesical pressure and intercontraction interval was recorded during the last 30 minutes of the control period (baseline) and during the 30 minutes of each treatment period, with one treatment period corresponding to one dose of drug.

[2] = Antimuscarinic screen in rat bladder perfusion model (plasma, urine and tissue drug levels); settings: for total recovery: theoretical dose 3.3 mg/day
From the text: The drugs were perfused at varying rates, concentrations, and times. Serial blood and urine samples were taken, and tissues (bladder, ureter, kidney, and prostate) were sampled to determine drug levels and distribution. Tissue histological exams were completed for safety.

[3] = test system: carbachol 30 μM (M1, M2, M3, AChRa2 agonist); settings: low dose protocol 0.1 and 0.5 μg/mL, intravesical; cited from earlier work
[4] = test system: normal bladder activity; settings: human urine after oral dosing infused into rat bladders; cited from earlier work
[5] = oral therapeutic doses for 5 days; cited from earlier work

CCN(CC)CC#CCOC(=O)C(O)(c1ccccc1)C1CCCCC1 (stereo not drawn) [Oxybutynin, oxybutynin chloride]
acetic acid induced increased intravesical pressure [1]: dose dependent reductions
inter-contraction intervals compared to the control [1]: neither of which altered intercontraction interval
inter-contraction intervals compared to the control ([1]; listed as oxybutynin hydrochloride): little effect
systemic absorption following intravesical administration ([2]; compared among the three drugs): significantly higher systemic absorption
estimated intravesical absorption ([2]; rat, in vivo): 83 % of the intravesical dose
Effective Urine Concentration ([2]; rat, intravesical perfusion): 1 to 10 µg/mL
total recovery [2]: low total recovery
intercontraction interval ratio to baseline [3]: performed similarly

O=C(O[C@H]1C[C@H]2CC[C@@H](C1)[N+]21CCCC1)C(O)(c1ccccc1)c1ccccc1 [Trospium, trospium chloride]
acetic acid induced increased intravesical pressure [1]: dose dependent reductions
inter-contraction intervals compared to the control ([1]; listed as trospium): increase intercontraction interval; also recorded: increased the inter-contraction intervals compared to the control
inter-contraction intervals compared to the control ([1]; listed as trospium chloride): kept the inter-contraction intervals closer to the baseline measurement
urinary retention or significant systemic exposure ([1]; at intravesical concentration normalizing urothelial sensory function): did not produce urinary retention or significant systemic exposure
concentration range showing activity ([1]; intravesical): 0.05 to 100 µg/mL
effect on bladder capacity and intercontraction interval [4]: more positive effect
urine concentration ([2]; 24-48 hours after exposure): about 150 μg/mL
urine concentration ([2]; 48-72 hours after exposure): > 125 µg/mL
Cmax ([2]; rat, in vivo): 0.06 to 0.7 ng/mL
Effective Urine Concentration ([2]; rat, intravesical perfusion): 1 to 10 µg/mL
Urine to Plasma Ratio ([2]; rat, intravesical perfusion): 15,380
total recovery [2]: near the theoretical dose
intercontraction interval ratio to baseline [3]: performed similarly
active compound excreted in the human's urine [5]: 60-80%

dimethindene maleate
intercontraction interval ratio to baseline [3]: performed similarly

Cc1ccc(O)c([C@H](CCN(C(C)C)C(C)C)c2ccccc2)c1 [Toterodine, tolterodine tartrate]
acetic acid induced increased intravesical pressure [1]: dose dependent reductions
inter-contraction intervals compared to the control ([1]; listed as tolterodine): neither of which altered intercontraction interval
inter-contraction intervals compared to the control ([1]; listed as tolterodine tartrate): little effect
Effective Urine Concentration ([2]; rat, intravesical perfusion): 1 to 10 µg/mL
